From patent US10731187B2, “Recombinant strain producing O-aminobenzoate and fermentative production of aniline from renewable resources via 2-aminobenzoic acid” (Covestro Deutschland AG, priority 2014, dated 2020)

Tests used:
B. subtilis = assay: Shake flask growth (OD600) with supplementation of toxic substances; type: cell-based, Bacillus subtilis subsp. 168; conditions: 3 g/L oAB, pH 7 (MOPS), 100-mL shake flask, 25 h
Excerpt: (§1) Several strains commonly used industrial biotechnology were investigated regarding their natural tolerance towards oAB and to organic solvents in question for later product extraction (e.g. 1-dodecanol or octanol). Furthermore, the influence of the used pH value was investigated. It was known from previous experiments that at least for E. coli the toxicity of aromatic compounds depends strongly on the pH value, probably because protonated acids can much more efficiently penetrate the cell membrane and accordingly their toxicity rises severely. The extraction of oAB in an organic phase is supposed to work best at low pH values, close to the isoelectric point of oAB. The most relevant host strains considered were: Escherichia coli K12, Corynebacterium glutamicum DSM 20300 (=ATCC 13032), Pseudomonas putida KT2440, Bacillus subtilis subsp. 168, Saccharomyces cerevisiae DSM 70449, and Pichia pastoris X33 (DSM 70382).
To investigate the chosen strains towards the mentioned characteristics shake flasks and small scale fermentation experiments were performed and the organisms were supplemented with the toxic substances (aminobenzoates, solvents) at differed concentrations, different pH values, and the behaviour of the strains was studied. […]

[1] = test system: Corynebacterium glutamicum; assay: as above; type: cell-based, Corynebacterium glutamicum DSM 20300 (=ATCC 13032)
Excerpt: as §1
To investigate the chosen strains towards the mentioned characteristics shake flasks and small scale fermentation experiments were performed and the organisms were supplemented with the toxic substances (aminobenzoates, solvents) at differed concentrations, different pH values, and the behaviour of the strains was studied.
The organisms (commercially obtained from ordered from the DSMZ, German collection of Microorganisms and cell cultures, Braunschweig) were firstly cultivated in shake flasks and in each of them in suiting, published standard minimal medium in order to characterize their growth under standard cultivation conditions (C. glutamicum: Preculture: BHI medium (37 g/L; Brain-Heart-Infusion; Becton Dickenson and Company, Heidelberg); Main culture pH 7: CGXII-MOPS medium (42 g/L MOPS buffer, 20 g/L (NH4)2SO4, 5 g/L urea (Fisher Scientific, Schwerte), 1 g/L KH2PO4, 1 g/L K2HPO4, 0.25 g/L MgSO4.7H2O (Merck, Darmstadt), 0.01 g/L CaCl2, and 10 g/L glucose (autoclaved separately). The pH was adjusted to 7 with 5 mol/L sodium hydroxide solution. […]

[2] = test system: Corynebacterium glutamicum; assay: Aminobenzoate stability in fermenter culture supernatants by HPLC-DAD; conditions: HPLC-DAD 254 nm
Excerpt: It had to be excluded that the aminobenzoates were degraded by the organism and therefor the growth is restored after the prolonged lag-phase. To investigate the aminobenzoate stability in the fermenters culture supernatant samples were collected during the fermentation and analyzed by HPLC-DAD (254 nm) (see FIG. 23 and Example 3).
In a further experiment the concentration of oAB was increased to investigate the effect on the C. glutamicum strain. The four fermenters were hereto supplemented with 0 g/L, 15 g/L, 35 g/L and 80 g/L of oAB. […] The rest of the cultivation conditions was kept as described above. […] Cultures supplemented with 15 g/L oAB have shown an extensive lag-phase over 34-48 h before growth was recovered and cells entered the exponential phase (see FIG. 24). […]
An Agilent 1100 series HPLC-DAD system (with diode array detector; Agilent Technologies, Santa Clara (USA)) was used to quantify oAB concentrations in culture supernatants. […] The following gradient with a flow rate of 0.5 mL/min was applied: 0-1 min, 2% B; 1-2 min, 2-10% B; 2-12 min, 10-70% B; 12-23 min, 70-90% B; 23-25 min, 90-98% B, 25-27 min, 98% B; 27-27.5 min, 98%-2% B; 27.5-30 min, 2% B. The oAB concentration was determined from the signal integration at 254 nm (retention time: 18.9 min) using an external calibration curve.

## Nc1ccccc1C(=O)O [oAB, 2-aminobenzoic acid]
B. subtilis
  growth (OD600): strongly decreased
[1]; 3 g/L oAB, pH 7 (MOPS), 100-mL shake flask, 25 h
  growth (OD600): not inhibited
[1]; 5 g/L, pH 5 and pH 7, shake flask
  growth inhibition: No growth inhibition
[1]; Corynebacterium glutamicum ATCC13032
  tolerance for o-aminobenzoate: high tolerance
[2]
  degradation during cultivation / fermentation: excluded
